Measurements taken from patent EP1075525B1, “DNA POLYMERASE FROM PYROBACULUM ISLANDICUM” (Roche Diagnostics GmbH, priority 1999, dated 2000).
Values belong to the compound of their own block, whether it stands above or below them.

System: DNA polymerase of P. islandicum
Assay: Non-radioactive DNA polymerase activity assay: influence of inhibitors and ions
Assay type: biochemical, Pyrobaculum islandicum
Conditions: for DNA polymerase activity: pH 7.5, 0.5 mM MgCl2, 0 mM KCl, 0.5 U

Compound: C[C@@]1(CO)[C@H](O)CC[C@@]2(C)[C@H]1CC[C@H]1C[C@@H]3C[C@@]12CC[C@]3(O)CO [Aphidicolin]
DNA polymerase activity (50 µM (17 µg/ml) aphidicolin, 75°C): 100% | DNA polymerase activity (200 µM (68 µg/ml) aphidicolin, 75°C): 70% | DNA polymerase activity (500 µM (170 µg/ml) aphidicolin, 75°C): 55% | DNA polymerase activity (2000 µM (680 µg/ml) aphidicolin, 75°C): 21%

residual activity (in the presence of 100 mM KCl, 75°C, pH 7.3, 0.5 mM MgCl2): 7%
Compound: [Cl-].[K+] [KCl]

DNA polymerase activity (1 mM N-Ethylmaleimid, preincubation of enzyme at 90°C for 20 min, 75°C): 40% | DNA polymerase activity (2 mM N-Ethylmaleimid, preincubation of enzyme at 90°C for 20 min, 75°C): 30% | DNA polymerase activity (5 mM N-Ethylmaleimid, preincubation of enzyme at 90°C for 20 min, 75°C): 0% | DNA polymerase activity (in words) (after a preincubation with 5 mM NEM): total loss of activity
Compound: CCN1C(=O)C=CC1=O [N-Ethylmaleimid]

DNA polymerase activity (ddGTP/dGTP = 5, 75°C): 95% | DNA polymerase activity (ddGTP/dGTP = 20, 75°C): 53% | inhibition of DNA polymerase (in words) (ddGTP/dGTP ratio of 2): No inhibition
Compound: Nc1nc2c(ncn2[C@H]2CC[C@@H](COP(=O)(O)OP(=O)(O)OP(=O)(O)O)O2)c(=O)[nH]1 [ddGTP]
